Usually IC50 stands for the point on the concentration scale where inhibition reaches its midpoint.

One data set addresses T1, FXIIa (Homo sapiens, UniProt P00748).
T1 construct: panel of serine proteases: uPA, tPA, thrombin, plasmin, FXIIa
Nature of the data set: in vitro serine protease inhibition profile: FXIIa. Type of data set: biochemical.

Another data set concerns the target tPA (Homo sapiens, UniProt P00750). Kind of data set: in vitro serine protease inhibition profile: tPA. The data set is classed as biochemical.
The target in a further data set is KLK4 (Homo sapiens, UniProt Q9Y5K2). Nature of the data set: in vitro serine protease inhibition profile: KLK4. The data set is classed as biochemical.
KLK4, sequence (Q9Y5K2 31-254, species assumed): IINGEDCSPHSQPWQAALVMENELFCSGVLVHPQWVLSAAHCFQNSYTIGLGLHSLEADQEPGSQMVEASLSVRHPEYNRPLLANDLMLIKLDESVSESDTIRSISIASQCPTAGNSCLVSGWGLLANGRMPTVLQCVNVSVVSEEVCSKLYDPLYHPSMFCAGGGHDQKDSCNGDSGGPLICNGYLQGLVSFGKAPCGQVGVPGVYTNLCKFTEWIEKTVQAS
The target in another data set is uPA (Homo sapiens, UniProt P00749). Nature of the data set: in vitro serine protease inhibition profile: uPA. Type of data set: biochemical.
Another data set concerns the target T2, thrombin (Homo sapiens, UniProt P00734).
T2 construct: panel of serine proteases: uPA, tPA, thrombin, plasmin, FXIIa
Kind of data set: in vitro serine protease inhibition profile: thrombin. Type of data set: biochemical.

The target of the next data set is T3, KLK8 (Homo sapiens, UniProt O60259).
T3 sequence (O60259 33-260): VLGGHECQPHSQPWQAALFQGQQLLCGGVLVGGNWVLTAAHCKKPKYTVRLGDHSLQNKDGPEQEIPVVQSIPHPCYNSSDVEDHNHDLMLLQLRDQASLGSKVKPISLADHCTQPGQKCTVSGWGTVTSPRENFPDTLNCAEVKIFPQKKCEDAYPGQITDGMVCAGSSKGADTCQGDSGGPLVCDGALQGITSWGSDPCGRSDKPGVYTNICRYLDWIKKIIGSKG
Kind of data set: in vitro serine protease inhibition profile: KLK8. The data set is classed as biochemical.

Another data set concerns the target T4, plasmin (Homo sapiens, UniProt P00747).
T4 construct: panel of serine proteases: uPA, tPA, thrombin, plasmin, FXIIa
Nature of the data set: in vitro serine protease inhibition profile: plasmin. Type of data set: biochemical.

The next data set addresses KLK1 (Homo sapiens, UniProt P06870). Nature of the data set: in vitro serine protease inhibition profile: KLK1. The data set is classed as biochemical.
Another data set has as its system post-colitis rats. Kind of data set: post-colitis rat model for visceral pain, visceromotor response (VMR) to colorectal distension. The note with it: for effect on VMRs (visceral pain) / effective dose in visceral pain model: post-colitis rats; for effective dose in visceral pain model: i.p. The method, then:
Male Sprague-Dawley rats (200-225 g; Charles River, Italy) were used in all experiments. Rats were housed at a constant room temperature (22±2° C.) and humidity (60%). The animals had unlimited access to water and food and were kept on a 12 h:12 h day-night cycle. They were allowed to acclimatize for at least 1 week before the start of the experiments.
In this set-up, a mild colitis was induced in the post-colitis group on day 0, using a TNBS-enema. The control group received an intrarectal administration with 0.9% NaCl. The presence of colitis was verified by a colonoscopy on day 3. From day 10 onwards, a colonoscopy was performed every 4 days to follow-up the healing of the colonic mucosa. When the colonic mucosa was completely healed, further experiments were performed 3 days later. […] After the VMR measurement, the animals were sacrificed.
TNBS-colitis was induced at day 0 using a TNBS-enema (4 mg TNBS, 50% ethanol). […] Control animals received 0.25 ml 0.9% NaCl intrarectally. The animals were kept in a tail-up position during 1 min and were then allowed to recover in a Trendelenburg position.
Electromyographic (EMG) electrodes were implanted into the external abdominal muscle and 3 days later, the VMR experiment was performed in conscious rats. A lubricated balloon (length 5 cm) was introduced into the colorectum of the animal and connected to a barostat (Distender Series II Barostat, G&J Electronics, Canada). The EMG electrodes were attached to a data-acquisition system and a phasic distension protocol (10-20-30-40-60 mmHg, 20 s, 4 min interval) was sent through the barostat. […] The VMR was quantified using the area under the curve (AUC) of the EMG signal during the distension (20 s) corrected for the EMG signal before the distension (20 s).
22.0. The results of the VMR experiments analyzed using a Generalized Estimating Equations (GEE) test with Least Significant Difference (LSD) post-hoc test. A p-value<0.05 was considered as being statistically significant. The graphs were made with GraphPad Prism 6.0.
Visceral sensitivity was assessed using the visceromotor responses (VMRs) to a colorectal distension, shown in the graphs below as area under the curve (AUC; y-axis; μV.20 s-1) for each distension pressure (x-axis; mmHg). Serine proteases seem to play an important role in the pathogenesis of visceral pain.

In a further data set the target is KLK2 (Homo sapiens, UniProt P20151). Kind of data set: in vitro serine protease inhibition profile: KLK2. Type of data set: biochemical.
KLK2, sequence (P20151 25-261, species assumed): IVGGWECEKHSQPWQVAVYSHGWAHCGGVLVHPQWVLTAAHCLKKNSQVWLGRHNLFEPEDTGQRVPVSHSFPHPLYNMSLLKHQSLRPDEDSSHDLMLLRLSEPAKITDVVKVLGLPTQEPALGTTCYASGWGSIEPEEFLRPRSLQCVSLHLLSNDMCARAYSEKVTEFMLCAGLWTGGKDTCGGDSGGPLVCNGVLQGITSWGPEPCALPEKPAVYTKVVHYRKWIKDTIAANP
The test system of a further data set is ocular tissue damage. Nature of the data set: rat dry eye model, ocular surface damage by fluorescein staining. The data set is classed as in vivo. The conditions noted are these: dry eye rats. The method, then: Female Wistar rats (200-300 g, Janvier, Roubaix, France) were kept under standard pathogen-free conditions. Husbandry conditions: room temperature 20-25° C., humidity 50-60% and a day-night cycle of 12 h light/12 h dark. Food and water were available ad libitum. All in vivo manipulations were approved by the Animal Ethical Committee of the University of Antwerp (2013-67) and are in accordance to the ARRIVE guidelines for the use of animals in ophthalmic and vision research.
To remove the exorbital lacrimal gland, animals were anesthetized with an intraperitoneal injection of 25 mg/kg ketamine (Anesketin®, Eurovet, Bladel, Netherlands) and 2.5 mg/kg xylazine (Rompun®, Bayer, Leverkusen, Germany). Routine manipulations (tear collection, fluorescein staining) were performed after induction with 5% isoflurane (Halocarbon®, New Jersey, USA), followed by a maintenance dosage of 1.5%.
To remove the gland, a small incision was made beneath the right ear. The lacrimal glands of the left eye were kept intact, leaving each animal with its own individual control and eliminating the need for extra control groups. Progression of dry eye was monitored for 24 days and tear volume measurements and fluorescein staining were performed once a week. Tears were collected twice a week.
Sodium-fluorescein (1%, Sigma-Aldrich, Seelze, Germany) in phosphate buffered saline (PBS, Gibco® by LifeTechnologies Europe, Gent, Belgium) was administered topically to the surface of the eye. To avoid false positives, eyes were rinsed after one minute with PBS and excess fluorescein was removed by placing filter paper in the lateral cantus of the eye. The eye was photographed with a microscopic lens (Photo adapter 1.0 MC 80 DX-Axiovert 25 CA, Carl Zeiss AB, Gottingen, Germany) in a darkened room under cobalt blue light. Using the Oxford fluorescein grading scale, scores from 0 to 5 were given to each eye, depending on ocular staining intensity. Semi-quantitative scoring was done in a blind manner by three independent observers. Evaluation of ocular surface damage was performed every week.
Tear fluid was obtained twice a week. Tear volume and tissue damage was evaluated once a week. Animals were treated with Restasis® (2×/day), UAMC50, UAMC1162, UAMC1169/vehicle (2×/day) for 3 consecutive weeks. Compounds 1, 2 and 4 were formulated as follows: […]

The mark [1] stands for this setting: 1 mg/kg i.p., single administration.
Setting [2] is: 5 mM formulation, 2x/day, FIG. 4.

T4 sequence (P00747 581-810 limits assumed, species assumed): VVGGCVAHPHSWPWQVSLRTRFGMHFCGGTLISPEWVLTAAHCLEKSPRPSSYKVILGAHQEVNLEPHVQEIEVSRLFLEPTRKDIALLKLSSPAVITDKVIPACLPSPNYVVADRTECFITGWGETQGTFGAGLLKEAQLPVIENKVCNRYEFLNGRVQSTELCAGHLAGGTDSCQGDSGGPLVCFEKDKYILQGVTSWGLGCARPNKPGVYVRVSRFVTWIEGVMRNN
T4 sequence (P00747 97-580 partner limits assumed, species assumed): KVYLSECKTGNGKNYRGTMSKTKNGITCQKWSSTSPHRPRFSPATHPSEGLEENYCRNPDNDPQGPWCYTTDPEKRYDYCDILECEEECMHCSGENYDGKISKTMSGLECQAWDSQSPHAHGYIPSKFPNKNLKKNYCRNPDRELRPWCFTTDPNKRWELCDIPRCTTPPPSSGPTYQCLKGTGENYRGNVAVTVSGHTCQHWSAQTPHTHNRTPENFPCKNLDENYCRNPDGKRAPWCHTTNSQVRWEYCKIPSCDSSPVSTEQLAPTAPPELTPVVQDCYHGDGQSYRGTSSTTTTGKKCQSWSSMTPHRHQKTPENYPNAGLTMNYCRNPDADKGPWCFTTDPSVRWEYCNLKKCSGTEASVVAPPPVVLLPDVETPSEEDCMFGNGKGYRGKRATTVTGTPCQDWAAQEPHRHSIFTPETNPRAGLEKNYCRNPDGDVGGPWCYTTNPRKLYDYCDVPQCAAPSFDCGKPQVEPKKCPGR
tPA, sequence (P00750 36-562, species assumed): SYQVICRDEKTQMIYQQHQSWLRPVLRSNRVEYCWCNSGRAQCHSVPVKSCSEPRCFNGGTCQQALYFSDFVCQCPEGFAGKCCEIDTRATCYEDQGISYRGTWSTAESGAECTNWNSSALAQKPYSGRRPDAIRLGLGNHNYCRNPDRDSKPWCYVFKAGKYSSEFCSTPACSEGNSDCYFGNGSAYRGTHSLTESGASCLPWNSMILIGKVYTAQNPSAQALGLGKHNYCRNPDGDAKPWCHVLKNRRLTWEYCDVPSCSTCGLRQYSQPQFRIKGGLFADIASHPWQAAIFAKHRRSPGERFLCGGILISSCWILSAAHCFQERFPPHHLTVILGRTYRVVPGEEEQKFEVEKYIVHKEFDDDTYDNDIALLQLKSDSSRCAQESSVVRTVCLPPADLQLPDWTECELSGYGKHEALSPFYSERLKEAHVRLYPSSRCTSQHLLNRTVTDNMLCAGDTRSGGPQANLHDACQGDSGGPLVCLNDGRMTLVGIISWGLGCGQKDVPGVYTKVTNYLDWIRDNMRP
T1 sequence (P00748 373-615 limits assumed, other chains not shown): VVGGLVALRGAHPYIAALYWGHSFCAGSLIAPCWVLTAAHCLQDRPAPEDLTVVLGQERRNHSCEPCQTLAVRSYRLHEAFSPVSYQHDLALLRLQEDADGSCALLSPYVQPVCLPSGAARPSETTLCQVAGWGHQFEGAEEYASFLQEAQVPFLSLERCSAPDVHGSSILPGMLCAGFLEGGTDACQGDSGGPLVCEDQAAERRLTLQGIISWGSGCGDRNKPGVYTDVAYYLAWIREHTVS
KLK1, sequence (P06870 25-262, species assumed): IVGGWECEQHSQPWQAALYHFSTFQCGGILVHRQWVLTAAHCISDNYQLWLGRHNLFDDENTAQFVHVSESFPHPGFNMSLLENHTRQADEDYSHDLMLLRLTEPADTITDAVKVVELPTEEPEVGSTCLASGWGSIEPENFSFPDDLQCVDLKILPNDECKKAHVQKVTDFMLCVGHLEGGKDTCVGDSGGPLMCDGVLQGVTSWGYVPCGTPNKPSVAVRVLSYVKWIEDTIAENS

Take `COC(=O)NC(Cc1ccc(NC(=N)N)cc1)P(=O)(Oc1ccccc1)Oc1ccccc1` (stereo not shown) [Compound 1]: the half-inhibitory concentration (IC50) against FXIIa is > 2500 nM; against tPA, > 2500 nM; on KLK4, 9 nM; against uPA, 4 nM; against thrombin, > 2500 nM; against KLK8 it was 28 nM. Further, the IC50 at plasmin, at KLK1 and at KLK2 was > 2500 nM throughout. In addition, the “effect on VMRs (visceral pain)” value in the data set on post-colitis rats (setting [1]) is given as “no clear reduction of the VMRs was seen”; with post-colitis rats (2.5 mg/kg i.p.), “visceral pain had completely disappeared”. The “effective dose in visceral pain model” value in the data set on post-colitis rats was “at least 2.5 mg/kg”. Besides, the side effect observed entry with post-colitis rats (rats, 5 mg/kg) is “sedation was observed”. Also, the “effect on ocular tissue damage” value in the data set on ocular tissue damage (setting [2]) is listed as “no effect”.

`CC(=O)Nc1ccc(OP(=O)(Oc2ccc(NC(C)=O)cc2)C(Cc2ccc(NC(=N)N)cc2)NC(=O)OCc2ccccc2)cc1` (stereo not shown) [Compound 4]: the IC50 is 1610 nM on FXIIa; > 2500 nM at tPA; 2 nM on KLK4; 2 nM on uPA; 257 nM against thrombin; 2 nM against KLK8. Moreover, the IC50 was > 2500 nM at plasmin, > 2500 nM at KLK1 and 115 nM against KLK2. Also, the “effect on visceral sensitivity” value in the data set with post-colitis rats (control rats, 1 mg/kg i.p.) is “no significant effect on visceral sensitivity”. Also, the “effect on VMRs (visceral pain)” value in the data set with post-colitis rats (0.01 mg/kg i.p., single administration 30 min before VMR) was “no significant effect”; with post-colitis rats (0.1 mg/kg i.p., single administration), “significantly lowered VMRs”; in the data set on post-colitis rats (setting [1]), “visceral pain had completely disappeared”. The “effective dose in visceral pain model” value in the data set on post-colitis rats is reported as 0.1 mg/kg. Moreover, the “effect on ocular tissue damage” value with ocular tissue damage (setting [2]) is given as “superior effect on ocular tissue damage”; with ocular tissue damage (lower dose (500 μM), day 21) it was “failed to provide an effect on day 21”. For the same compound, in the data set on ocular tissue damage (follow-up experiments, 5 mM and 500 μM, vs untreated, vehicle, Restasis, FIG. 5), the tissue damage scores entry was “lower tissue damage scores”.

The values are drawn from patent US11638712B2, “Bis(acetamidophenyl) guanidinophenylethylphosphonates for use in the prevention and/or treatment of PAR-related diseases” (Universiteit Antwerpen, priority 2016, dated 2023).
